Among the data in PubChem BioAssay (NCI) are TGI values, retold here.

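How tested: cells in 96-well plates exposed to compound for 48 hours at five concentrations. TGI denotes the concentration required for complete inhibition of growth.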 A value given as a limit tells only on which side of the number the result lay.

Common to all, as to assay: inhibition of tumour cell growth, NCI panel, 48 h
For assay [1], the system named is ACHN renal.
In assay [2] the test system is BT-549 breast.
The subject of assay [3] is HCT-15 colon.
Assay [4] deals with HT29 colon.
Assay [5] has as its system K-562 leukemia.
In assay [6] the test system is M14 melanoma.
Assay [7] relates to MDA-MB-231 breast.
The subject of assay [8] is NCI-H522 lung.
Assay [9] deals with OVCAR-5 ovarian.
Assay [10] concerns OVCAR-8 ovarian.
For assay [11], the system named is SF-268 CNS.
In assay [12] the test system is SF-539 CNS.
Assay [13] deals with SK-OV-3 ovarian.
The subject of assay [14] is SNB-75 CNS.
Assay [15] has as its system SR leukemia.
Assay [16] deals with T-47D breast.
The subject of assay [17] is UACC-62 melanoma.

For `O=c1oc2ccccc2nc1/C=C(\O)c1ccc(Cl)cc1`, the TGI in assay [1], in [2], in assay [3], in [4], in assay [5] and in [6] was over 100 µM in each case. Also, the TGI in assay [7], in assay [8], in assay [9], in assay [10], in [11] and in assay [12] was over 100 µM in each case. Further, the TGI in assay [13], in assay [14], in assay [15], in assay [16] and in assay [17] was over 100 µM each time.

`C=CCN(c1cc(OCc2ccccc2)c2[nH]cc(C)c2c1)S(C)(=O)=O`: the TGI in assay [1], in assay [2], in [3], in assay [4], in assay [5] and in [6] was over 100 µM each time. In addition, the TGI in assay [7], in assay [8], in assay [9], in assay [10], in [11] and in [12] was over 100 µM each time. Also, the TGI in assay [13] is over 100 µM; in assay [14] it was 55.6 µM; in [15], over 100 µM; in [16], 60.6 µM; in assay [17], over 100 µM.

With `CC(C)OC(=O)c1ccc(CCC2=CC(=O)C=CC2=O)cc1`, the TGI in [1] was 18.8 µM; in assay [2], 19.7 µM; in assay [3], 25.1 µM; in assay [4] it was 33.1 µM; in assay [5] it was over 37.1 µM; in assay [6], 39 µM. The TGI in assay [7] is 23.2 µM; in assay [8], 4.02 µM; in assay [9], 29.4 µM; in assay [10] it was 18.1 µM; in [11] it was 28.6 µM; in assay [12] it was 17.1 µM. For the same molecule, the TGI was over 88.6 µM in assay [13]; 62.5 µM in assay [14]; over 25.3 µM in assay [15]; 4.45 µM in assay [16]; 28.8 µM in assay [17].

Turning to `O=c1cc(N=Nc2ccc(Br)cc2)[nH]c(=S)[nH]1`, the TGI was 40.8 µM in [1]; over 100 µM in [2]; 29.8 µM in [3]; 34.2 µM in assay [4]; 54.4 µM in [5]; 29.1 µM in [6]. Besides, the TGI is 34.3 µM in assay [7]; 38 µM in [8]; over 100 µM in assay [9]; 51.3 µM in assay [10]; over 100 µM in assay [11]; over 100 µM in [12]. Besides, the TGI in [13] was over 100 µM; in assay [14] it was over 100 µM; in [15] it was 74.1 µM; in [16], 62.4 µM; in assay [17], over 100 µM.

Take `CCCCCCCCCCCCCCCCCc1cccc(OCOCCOC)c1C(=O)O`: the TGI was 35.2 µM in [1]; 31.6 µM in assay [2]; 41.2 µM in assay [3]; 35.7 µM in assay [4]; over 83 µM in assay [5]; 35.9 µM in [6]. Also, the TGI in assay [7] came to 37.4 µM; in assay [8], 30 µM; in assay [9] it was 35 µM; in [10], 31.7 µM; in assay [11], 34.5 µM; in assay [12] it was 30.1 µM. Also, the TGI in assay [13] worked out at 28 µM; in assay [14], 31.1 µM; in [15], 50 µM; in assay [16], 35.2 µM; in assay [17] it was 32.4 µM.

Consider `CCOC(=O)c1nc2ccc(C(F)(F)F)cc2nc1NCc1ccc(OC)cc1`, for which the TGI in assay [1], in [2], in assay [3], in [4], in assay [5] and in [6] was over 100 µM throughout. The TGI in assay [7], in assay [8], in [9], in [10], in assay [11] and in assay [12] was over 100 µM throughout. The TGI in assay [13], in assay [14], in assay [15], in [16] and in assay [17] was over 100 µM throughout.

For the molecule `COC(=O)/C=C1\C(=O)N(C(C)=O)c2ccc(Br)cc21`, the TGI in [1] was found to be 23.9 µM; in assay [2], 22.8 µM; in [3], 21.7 µM; in assay [4] it was 25 µM; in assay [5], 44.9 µM; in assay [6] it was 23 µM. For the same molecule, the TGI stood at 28.2 µM in assay [7]; 13.3 µM in assay [8]; 32.4 µM in assay [9]; 24 µM in assay [10]; 21.1 µM in assay [11]; 9.65 µM in [12]. Besides, the TGI in assay [13] amounted to 29.1 µM; in assay [14], 21.8 µM; in assay [15], 13.5 µM; in assay [16], 15.1 µM; in assay [17], 25.3 µM.

As for `O=P12N(CCN1c1ccccc1)CCN2c1ccccc1`, the TGI in [1], in [2], in [3], in assay [4], in assay [5] and in assay [6] was over 100 µM throughout. Also, the TGI in [7], in [8], in [9], in assay [10], in assay [11] and in [12] was over 100 µM in each case. Also, the TGI in assay [13], in [14], in assay [15], in assay [16] and in assay [17] was over 100 µM in each case.

`O=C1NC(=O)C(F)(n2cc(F)c(=O)[nH]c2=O)C(O)N1` (stereo not drawn): the TGI in [1], in assay [2], in [3], in assay [4], in assay [5] and in assay [6] was over 10 µM throughout. In addition, the TGI in [7], in assay [8], in [9], in [10], in assay [11] and in assay [12] was over 10 µM in each case. The TGI in assay [13], in assay [14], in assay [15], in [16] and in [17] was over 10 µM throughout.
